For data set [1] the following is noted: stated to justify doses larger than 1 to 4 g/day; cited from earlier work.
A further data set relates to early-onset AD patients. The data set is described as follows: Double-blind, randomized, placebo-controlled trials with cognitive and functional clinical rating scales. Conditions: "efficacy" population. The data set is classed as in vivo. As for the experimental part: For the purposes of assessing the clinical efficacy of acetyl L-carnitine in early-onset AD patients. 8 different parallel-group, double-blind, randomized, placebo-controlled trials in which acetyl L-carnitine was administered chronically by mouth to subjects suffering from early-onset (before age 65) or late-onset (after age 65) Alzheimer's disease were pooled and assessed as a whole.
Acetyl L-carnitine or placebo were administered at doses ranging from 2 to 3 g/day in the different studies. All patients recruited into these trials had diagnoses of probable Alzheimer's disease according to the criteria laid down by the DSM-III-R and the NINCDS-ADRDA; for recruitment patients had to have a Hachinski Ischemic Score of 4 points or less and no CT or NMR findings indicative of cerebral lesions other than those typical of Alzheimer's disease.
A total of 834 patients were recruited into the 8 trials considered. Of these, 140 (16.8%) were suffering from early-onset AD (before 65 years of age according to the DSM-IV definition). The criterion adopted to identity these patients as early-onset was their actual age at the time of recruitment into the study.
In the 8 trials considered, the progression of Alzheimer's disease was assessed on the basis of cognitive clinical rating scales (cognitive section of the Alzheimer's Disease Assessment Scale [ADAS-Cog]; MMSE - Mini Mental State Examination; BIMC - Blessed Information Memory Concentration) and functional or global clinical scales (CDR - Clinical Dementia Rating Scale; BDS - Blessed Dementia Scale; CGI-S and -C - Clinical Global Impression of Severity and Change) according to the scientific criteria indicated and approved by the various international regulatory authorities.

[2] abbreviates: study ST-901, Functional, oral 3 g/day, 12 months.
The mark [3] stands for this setting: study ST-88102, Cognitive, oral 2-3 g/day, 44 weeks.
The mark [4] stands for this setting: study ST-88102, Functional, oral 2-3 g/day, 44 weeks.
[5] abbreviates: the 5 studies of 6 months, Functional, oral.

Consider `CC(=O)O[C@H](CC(=O)[O-])C[N+](C)(C)C` [Acetyl L-carnitine, acetyl L-carnitine], for which, in data set [1], the toxicity result is recorded as “substantial non-toxicity”. The “BIMC, mean change in final value at 6-12 months compared to baseline” value with early-onset AD patients (study DRN2-006, Cognitive, oral 2 g/day, 12 months) was -3.5. Besides, in the data set with early-onset AD patients (study DRN2-006, Functional, oral 2 g/day, 12 months), the “BDS, mean change in final value at 6-12 months compared to baseline” value turned out to be 0.4. Also, in the data set with early-onset AD patients (setting [2]), the “CDR, mean change in final value at 6-12 months compared to baseline” value is 1.9; the “CGI-C, mean change in final value at 6-12 months compared to baseline” value (“CGI-C, mean change in final value” below) amounted to 4.5; the “CGI-S, mean change in final value at 6-12 months compared to baseline” value (“CGI-S, mean change in final value” for short) is 0.3. In the data set with early-onset AD patients (setting [3]), the “ADAS-Cog, mean change in final value at 6-12 months compared to baseline” value was determined as 4.7 and the “MMSE, mean change in final value at 6-12 months compared to baseline” value was -2.1. Further, in the data set with early-onset AD patients (setting [4]), the “BDS, mean change in final value at 6-12 months compared to baseline” value came out at 1.2; the “CGI-C, mean change in final value” value was determined as 4.4; the “CGI-S, mean change in final value” value is recorded as 0.0. In addition, in the data set with early-onset AD patients (the 5 studies of 6 months, Cognitive, oral), the “MMSE, mean change in final value at 6-12 months compared to baseline” value is listed as -0.7. Moreover, in the data set on early-onset AD patients (setting [5]), the “CGI-C, mean change in final value” value is on record as 4.3 and the “CGI-S, mean change in final value” value is recorded as 0.2.
